Assay results published in the supplement of paper PMC10307832.

Assays:
Assay in all cases: relative viability (nuclei count vs DMSO), 5 days (fraction); higher = more cells survive
XMD8-85 + Linsitinib = compound: CN1CCN(CC1)C2=CC(=C(C=C2)NC3=NC=C4C(=N3)N(C5=CC=CC=C5C(=O)N4C)C)OC [XMD8-85] + C[C@]1(O)C[C@@H](c2nc(-c3ccc4ccc(-c5ccccc5)nc4c3)c3c(N)nccn32)C1 [Linsitinib] (partner 1 µM)
Outline: (§1)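 Lung cancer cell lines were pin-tool dosed in 1536-well plates on the day after seeding, with either a lone drug or a fixed anchor-drug dose plus five library-drug doses (not always all listed) in √10 steps. Nuclei were counted on 4× images after 5 days. Relative viability is the ratio of treated-well to vehicle-well nuclei counts, with each value a median of duplicate plates.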

4EGI-1 + Crizotinib = compound: O=C(O)C(Cc1ccccc1[N+](=O)[O-])=NNc1nc(-c2ccc(Cl)c(Cl)c2)cs1 (mixture of isomers) [4EGI-1] + C[C@@H](Oc1cc(-c2cnn(C3CCNCC3)c2)cnc1N)c1c(Cl)ccc(F)c1Cl [Crizotinib] (partner 1 µM)
Outline: as §1

4EGI-1 + Pemetrexed = compound: O=C(O)C(Cc1ccccc1[N+](=O)[O-])=NNc1nc(-c2ccc(Cl)c(Cl)c2)cs1 (mixture of isomers) [4EGI-1] + Nc1nc2[nH]cc(CCc3ccc(C(=O)N[C@@H](CCC(=O)O)C(=O)O)cc3)c2c(=O)[nH]1 [Pemetrexed] (partner 0.2 µM)
Outline: as §1

4EGI-1 + Olaparib = compound: O=C(O)C(Cc1ccccc1[N+](=O)[O-])=NNc1nc(-c2ccc(Cl)c(Cl)c2)cs1 (mixture of isomers) [4EGI-1] + O=C(c1cc(Cc2n[nH]c(=O)c3ccccc23)ccc1F)N1CCN(C(=O)C2CC2)CC1 [Olaparib] (partner 8 µM)
Outline: as §1

Cell Line	relative viability (XMD8-85 + Linsitinib; first compound 0.08 µM)	relative viability (XMD8-85 + Linsitinib; first compound 0.253 µM)	relative viability (XMD8-85 + Linsitinib; first compound 0.8 µM)	relative viability (XMD8-85 + Linsitinib; first compound 2.53 µM)	relative viability (XMD8-85 + Linsitinib; first compound 8 µM)	relative viability (4EGI-1 + Crizotinib; first compound 0.5 µM)	relative viability (4EGI-1 + Crizotinib; first compound 1.581 µM)	relative viability (4EGI-1 + Crizotinib; first compound 5 µM)	relative viability (4EGI-1 + Crizotinib; first compound 15.81 µM)	relative viability (4EGI-1 + Crizotinib; first compound 50 µM)	relative viability (4EGI-1 + Pemetrexed; first compound 0.5 µM)	relative viability (4EGI-1 + Pemetrexed; first compound 1.581 µM)	relative viability (4EGI-1 + Pemetrexed; first compound 5 µM)	relative viability (4EGI-1 + Pemetrexed; first compound 15.81 µM)	relative viability (4EGI-1 + Pemetrexed; first compound 50 µM)	relative viability (4EGI-1 + Olaparib; first compound 0.5 µM)	relative viability (4EGI-1 + Olaparib; first compound 1.581 µM)	relative viability (4EGI-1 + Olaparib; first compound 5 µM)	relative viability (4EGI-1 + Olaparib; first compound 15.81 µM)	relative viability (4EGI-1 + Olaparib; first compound 50 µM)
HCC-44	0.714	0.749	0.642	0.499	0.346	0.841	0.6	0.8	0.656	0.186	0.609	0.634	0.549	0.584	0.593	0.959	0.829	0.953	0.934	0.752
HCC-78	0.594	0.532	0.445	0.443	0.382	0.365	0.258	0.371	0.286	0.373	0.911		0.916	0.892	0.972	1.05		0.881	0.816	1.13
HCC-366	0.69	0.687	0.764		0.352	0.641	0.277	0.605	0.506	0.529	0.154	0.18	0.184	0.147	0.111	0.342	0.203	0.395	0.257	0.0601
HCC-827	0.934	0.975	1.02	0.97	0.974	0.935	0.819	0.868		0.685	0.27	0.232	0.269		0.228	0.572	0.457	0.703		0.406
HOP-62	1.15	0.966	0.87	0.814		0.667		0.938	0.89	0.574	0.342	0.389	0.362	0.311	0.318	0.493		0.445	0.208	0.267
IA-LM	0.385	0.563	0.562	0.393	0.166	0.903	0.629	0.569	0.112	0.0835						0.767	0.771	0.644	0.154	0.0834
LC-2-ad	0.905	0.923	0.836	0.692	0.452	0.433		0.451	0.343	0.411	0.301	0.28	0.287	0.258	0.257	0.631	0.617	0.645	0.523	0.309
LCLC-97TM1	0.168	0.218	0.176	0.199	0.232	0.445		0.397	0.302	0.172	0.181		0.195	0.165	0.114	0.355		0.278	0.328	0.0574
LCLC-103H	1.05	1.03	1.12	1.19	0.857	1.05	0.926	0.937	0.857	1.05	0.443	0.409	0.474	0.435	0.477	0.72	0.658	0.728	0.699	0.415
